Reference: ChEMBL document CHEMBL1201862, “PubChem BioAssay data set” (2004)
Activity calls are given as the source filed them.

Tests used:
[1] = target: Eukaryotic translation initiation factor 4E (Mus musculus, UniProt P63073); experiment: blockers of eIF4G binding by eIF4E – biochemical, TR-FRET, dose response (AID 855); format: functional;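 also: potency for disrupting eIF4E binding to eIF4GI seen as loss of FRET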
[2] = target: T1, Protein Tat (Human immunodeficiency virus type 1 group M subtype B (isolate HXB2)(HIV-1), UniProt P04608); format: functional;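 also: tat binding to TAR RNA read out by fluorescence polarization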
T1 sequence (P04608 whole entry): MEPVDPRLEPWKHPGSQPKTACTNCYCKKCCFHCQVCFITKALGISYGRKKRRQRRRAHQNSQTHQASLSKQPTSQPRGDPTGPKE

[3] = target: Mu-type opioid receptor (Homo sapiens, UniProt P35372); format: functional, cell-based;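 also: U2OS cells with beta-arrestin recruitment to OPRM1 by beta-gal complementation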
Mu-type opioid receptor, sequence (P35372 whole entry): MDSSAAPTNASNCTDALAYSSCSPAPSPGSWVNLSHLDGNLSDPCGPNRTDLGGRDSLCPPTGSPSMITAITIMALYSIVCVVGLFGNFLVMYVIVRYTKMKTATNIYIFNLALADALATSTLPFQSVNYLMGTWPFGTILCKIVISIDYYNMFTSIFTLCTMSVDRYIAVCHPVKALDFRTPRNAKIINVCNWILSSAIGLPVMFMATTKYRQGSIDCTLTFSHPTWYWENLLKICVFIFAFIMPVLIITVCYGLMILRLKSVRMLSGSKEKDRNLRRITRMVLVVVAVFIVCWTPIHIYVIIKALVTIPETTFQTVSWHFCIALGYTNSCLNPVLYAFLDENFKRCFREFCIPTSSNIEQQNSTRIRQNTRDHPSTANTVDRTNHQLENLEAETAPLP

[4] = target: 5-hydroxytryptamine receptor 2A (Mus musculus, UniProt P35363); format: functional, cell-based;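 also: CHO-K1 cells with tagged receptor and beta-arrestin; agonist potency measured as compound-induced activation of the receptor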
5-hydroxytryptamine receptor 2A, sequence (P35363 whole entry): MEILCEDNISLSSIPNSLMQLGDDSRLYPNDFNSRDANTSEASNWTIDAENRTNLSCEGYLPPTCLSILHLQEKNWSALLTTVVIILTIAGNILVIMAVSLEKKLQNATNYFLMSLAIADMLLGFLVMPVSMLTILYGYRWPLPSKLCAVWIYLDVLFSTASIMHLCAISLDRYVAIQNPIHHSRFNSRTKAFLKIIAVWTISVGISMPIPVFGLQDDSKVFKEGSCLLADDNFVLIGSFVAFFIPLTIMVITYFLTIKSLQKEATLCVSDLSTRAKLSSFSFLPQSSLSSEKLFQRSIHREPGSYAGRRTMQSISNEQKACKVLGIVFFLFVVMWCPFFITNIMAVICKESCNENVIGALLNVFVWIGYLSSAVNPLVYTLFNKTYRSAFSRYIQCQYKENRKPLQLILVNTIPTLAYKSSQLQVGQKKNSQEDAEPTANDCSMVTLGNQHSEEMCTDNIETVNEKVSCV

[5] = target: T2, Rac GTPase-activating protein 1 (Homo sapiens, UniProt Q9H0H5); experiment: blockers of MgcRacGAP-driven Rac1 GTP hydrolysis – biochemical, ADP Hunter fluorescence, primary and confirmatory, confirmation (AID 624330); format: functional
T2 sequence (Q9H0H5 whole entry): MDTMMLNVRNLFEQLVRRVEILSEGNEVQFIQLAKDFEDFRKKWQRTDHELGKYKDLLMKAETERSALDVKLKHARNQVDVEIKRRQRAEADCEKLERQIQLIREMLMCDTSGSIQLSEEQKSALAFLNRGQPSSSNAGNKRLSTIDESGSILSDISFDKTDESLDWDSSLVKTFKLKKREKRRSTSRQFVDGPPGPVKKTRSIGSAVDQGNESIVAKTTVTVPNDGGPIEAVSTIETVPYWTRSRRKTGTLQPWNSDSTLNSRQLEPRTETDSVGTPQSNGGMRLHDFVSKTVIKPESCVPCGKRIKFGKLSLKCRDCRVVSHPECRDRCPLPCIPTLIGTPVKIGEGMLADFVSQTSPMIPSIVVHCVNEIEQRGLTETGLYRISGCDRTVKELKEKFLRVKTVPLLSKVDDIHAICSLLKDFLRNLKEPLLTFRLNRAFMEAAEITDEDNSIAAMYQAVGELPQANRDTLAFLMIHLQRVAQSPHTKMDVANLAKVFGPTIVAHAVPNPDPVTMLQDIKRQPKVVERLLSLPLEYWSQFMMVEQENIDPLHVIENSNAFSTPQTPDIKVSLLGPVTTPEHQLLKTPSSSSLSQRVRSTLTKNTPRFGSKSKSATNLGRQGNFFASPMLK

[6] = target: T3, Bcl-2-like protein 10 (Homo sapiens, UniProt Q9HD36); experiment: Bcl-B/TR3 peptide binding disruption – biochemical, fluorescence polarization, FITC-TR3 peptide, selectivity assay for Bfl-1 inhibitor project, primary screen (AID 748);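 also: fluorescence polarization from a fluorescein-labelled TR3 peptide binding purified Bcl-B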
T3 sequence (Q9HD36 whole entry): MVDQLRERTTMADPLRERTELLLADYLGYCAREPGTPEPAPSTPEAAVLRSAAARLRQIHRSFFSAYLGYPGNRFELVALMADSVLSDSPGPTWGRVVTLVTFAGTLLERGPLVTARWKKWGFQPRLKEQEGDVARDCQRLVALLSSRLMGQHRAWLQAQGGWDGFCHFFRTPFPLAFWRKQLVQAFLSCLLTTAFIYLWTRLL

[7] = target: T4, Histone-lysine N-methyltransferase NSD2 (Homo sapiens, UniProt O96028); format: biochemical
T4 sequence (O96028 whole entry): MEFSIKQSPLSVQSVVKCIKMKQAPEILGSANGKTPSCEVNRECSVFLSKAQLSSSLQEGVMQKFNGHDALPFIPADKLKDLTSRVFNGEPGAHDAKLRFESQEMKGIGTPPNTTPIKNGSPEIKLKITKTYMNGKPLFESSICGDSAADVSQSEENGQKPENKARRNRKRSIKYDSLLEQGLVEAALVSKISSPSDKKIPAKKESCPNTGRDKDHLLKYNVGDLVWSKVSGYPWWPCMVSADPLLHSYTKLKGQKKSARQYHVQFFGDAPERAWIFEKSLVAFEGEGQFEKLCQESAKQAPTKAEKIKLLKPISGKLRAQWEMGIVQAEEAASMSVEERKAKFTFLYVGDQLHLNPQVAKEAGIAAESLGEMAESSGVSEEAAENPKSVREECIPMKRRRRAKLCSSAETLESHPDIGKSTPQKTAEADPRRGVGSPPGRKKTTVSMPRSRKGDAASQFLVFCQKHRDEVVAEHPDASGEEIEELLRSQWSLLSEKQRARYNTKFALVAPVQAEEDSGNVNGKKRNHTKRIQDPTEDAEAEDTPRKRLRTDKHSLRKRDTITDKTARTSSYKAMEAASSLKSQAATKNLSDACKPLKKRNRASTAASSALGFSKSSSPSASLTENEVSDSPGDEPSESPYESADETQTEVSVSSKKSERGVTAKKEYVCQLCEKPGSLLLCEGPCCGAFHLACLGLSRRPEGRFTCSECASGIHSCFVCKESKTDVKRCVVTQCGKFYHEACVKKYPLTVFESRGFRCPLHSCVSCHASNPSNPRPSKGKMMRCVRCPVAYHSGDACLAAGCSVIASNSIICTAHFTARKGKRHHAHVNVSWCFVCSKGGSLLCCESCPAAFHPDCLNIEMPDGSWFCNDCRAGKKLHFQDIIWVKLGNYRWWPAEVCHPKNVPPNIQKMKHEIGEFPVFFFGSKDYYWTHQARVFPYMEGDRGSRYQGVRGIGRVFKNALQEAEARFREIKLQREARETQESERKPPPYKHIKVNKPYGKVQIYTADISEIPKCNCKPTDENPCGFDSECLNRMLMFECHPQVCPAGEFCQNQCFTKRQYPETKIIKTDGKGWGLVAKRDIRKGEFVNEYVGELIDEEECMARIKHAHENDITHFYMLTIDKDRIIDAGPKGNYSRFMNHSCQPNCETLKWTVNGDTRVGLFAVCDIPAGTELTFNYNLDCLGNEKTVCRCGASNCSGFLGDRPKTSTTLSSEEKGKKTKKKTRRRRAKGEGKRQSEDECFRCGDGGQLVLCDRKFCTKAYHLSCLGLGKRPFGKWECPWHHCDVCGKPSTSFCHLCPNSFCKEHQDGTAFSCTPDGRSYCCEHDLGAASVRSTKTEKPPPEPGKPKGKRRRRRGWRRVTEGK

[8] = target: Luciferin 4-monooxygenase (Photinus pyralis, UniProt P08659); experiment: inhibition of purified Photinus pyralis luciferase – biochemical, luminescence, dose response (AID 1891)
Luciferin 4-monooxygenase, sequence (P08659 whole entry): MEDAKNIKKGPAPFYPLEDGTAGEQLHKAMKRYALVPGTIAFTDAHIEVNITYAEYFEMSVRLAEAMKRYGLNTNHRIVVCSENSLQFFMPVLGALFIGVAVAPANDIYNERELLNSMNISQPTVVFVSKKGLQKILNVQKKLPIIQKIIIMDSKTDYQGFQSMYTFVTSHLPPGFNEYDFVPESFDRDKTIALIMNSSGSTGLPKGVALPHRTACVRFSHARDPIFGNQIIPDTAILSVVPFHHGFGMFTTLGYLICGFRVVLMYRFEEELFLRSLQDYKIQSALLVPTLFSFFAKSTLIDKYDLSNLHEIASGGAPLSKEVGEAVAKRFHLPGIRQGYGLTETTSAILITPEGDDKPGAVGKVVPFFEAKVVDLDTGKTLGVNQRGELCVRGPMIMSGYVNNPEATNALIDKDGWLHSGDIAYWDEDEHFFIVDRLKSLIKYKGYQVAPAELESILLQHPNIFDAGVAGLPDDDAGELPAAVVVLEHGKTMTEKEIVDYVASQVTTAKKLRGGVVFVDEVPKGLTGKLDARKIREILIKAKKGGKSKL

[9] = Luminescence Cell-Based Dose Confirmation HTS to Identify Inhibitors of Platelet Dense Granule Release. [Related pubchem assays: 1663 (Primary HTS), 1678 (Summary of Project)]; format: functional
[10] = test system: HEK293; experiment: EBV LMP1 TES2 canonical NF-kB signalling blockers – cell-based, HEK293, luciferase, cherry-pick, dose response (AID 588343); format: functional; conditions: Homo sapiens
[11] = A549 cell cytotoxicity, dose response, cytotoxicity control, plate reader, cherry-pick, antagonist series (AID 743412); format: functional, cell-based
[12] = toxicity toward HepG2 liver cells – cell-based, plate reader, cherry-pick, antagonist series, cytotoxicity control, dose response (AID 743416); format: functional
[13] = blockers of bursicon-stimulated LGR2 cAMP reporter – cell-based, HEK293, CRE-luciferase reporter, cherry pick, set 2, dose response (AID 743343); format: functional;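 also: transfected cells were stimulated with diluted bursicon conditioned medium after compound addition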
[14] = blockade of melanocortin 4 receptor signaling – cell-based, plate reader, cherry pick, counter-screen for LGR2 antagonist project, dose response (AID 743444); format: functional;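 also: transfected HEK 293 cells stimulated with alpha-MSH peptide; potency of inhibitors of the alpha-MSH evoked signal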
[15] = viability loss in HEK293 cells – cell-based, plate reader, cherry-picked samples, cytotoxicity control, dose response (AID 743446); format: functional
[16] = HGIII-sPLA2 enzyme inhibition potency – biochemical, QFRET, IC50, dose response (AID 743457);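 also: green fluorescence rise as the enzyme cleaves BODIPY PC-A2 in liposomes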
[17] = Luminescence-based cell-based high throughput dose response assay to identify activators of the DAF-12 from the parasite S. stercoralis (ssDAF-12).; format: functional
[18] = target: T5, Oxysterols receptor LXR-beta (Homo sapiens, UniProt P55055); experiment: LXR agonists, Gal4 luciferase reporter, dose response, counter-screen for ssDAF-12 agonist project, cell-based, luminescence, HEK293, S. stercoralis campaign (AID 720737); format: functional; conditions: read-out: IC50 (the source's name)
T5 sequence (P55055 whole entry): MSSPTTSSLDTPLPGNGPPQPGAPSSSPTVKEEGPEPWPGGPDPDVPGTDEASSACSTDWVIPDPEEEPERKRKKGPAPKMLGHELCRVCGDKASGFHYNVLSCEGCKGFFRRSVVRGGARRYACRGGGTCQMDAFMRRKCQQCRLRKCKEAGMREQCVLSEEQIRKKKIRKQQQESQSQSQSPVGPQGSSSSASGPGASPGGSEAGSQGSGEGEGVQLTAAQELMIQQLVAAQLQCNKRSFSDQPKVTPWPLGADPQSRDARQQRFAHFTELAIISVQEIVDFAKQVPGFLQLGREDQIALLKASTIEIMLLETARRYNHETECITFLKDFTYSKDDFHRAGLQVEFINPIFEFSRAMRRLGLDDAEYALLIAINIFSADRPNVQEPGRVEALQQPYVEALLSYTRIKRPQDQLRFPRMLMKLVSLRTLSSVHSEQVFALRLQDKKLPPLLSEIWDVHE

[19] = target: T5, Oxysterols receptor LXR-beta; format: functional, cell-based
[20] = cells
[21] = target: Prothrombin (Homo sapiens, UniProt P00734); experiment: Thrombin 1536 HTS Dose Response Confirmation. [Related pubchem assays: 1046 (Thrombin 1536 HTS; hits were confirmed in this assay)]; format: functional

Eukaryotic translation initiation factor 4E, sequence (P63073 whole entry): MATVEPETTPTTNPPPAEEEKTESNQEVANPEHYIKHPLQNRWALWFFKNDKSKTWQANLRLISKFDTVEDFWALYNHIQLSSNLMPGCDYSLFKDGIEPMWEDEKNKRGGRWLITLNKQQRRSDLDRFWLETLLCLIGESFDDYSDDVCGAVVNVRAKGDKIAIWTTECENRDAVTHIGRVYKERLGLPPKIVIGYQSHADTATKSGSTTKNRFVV

In the case of `O=c1cc(CCl)nc2sc3ccccc3n12`, the IC50 [1] is reported as 50 µM (inactive).
For `Cc1cc(C)c(S(=O)(=O)NCC2CCC(C(=O)N3CCC4(CC3)OCCO4)CC2)c(C)c1` (centres undefined), the IC50 [2] was > 100 µM (active).
In the case of `Cc1ccc(S(=O)(=O)N2CCOCC2)cc1NC(=O)CNCc1cccnc1`, the EC50 [3] is reported as 92.5 µM (inactive), the EC50 [4] is reported as 6.05 µM (active) and the IC50 [5] is reported as 108 µM (active).
With `Cc1cc[n+]2c3c(cccc13)CCC2` the IC50 [6] was 63.2 µM (inactive).
With `CCN(CC)CCCNc1cc(C(F)(F)F)c(C#N)c2nc3ccccc3n12` the AC50 [7] was > 20 µM (inactive).
With `CCOc1ccc(C(=O)Nc2cc(C)ccn2)cc1` the EC50 [8] was 1.19 µM (active), the EC50 [9] was 2.45 µM (active) and the AC50 [10] was 2.17 µM (active). The AC50 [11] was 21 µM (active), the AC50 [12] was 24.6 µM (active) and the AC50 [13] was 4.55 µM (active). The AC50 [14] was 2.97 µM (active) and the AC50 [15] was 22.1 µM (active).
With `COc1ccc(CCNC(=O)/C=C/c2ccco2)cc1` the IC50 [2] was > 100 µM (active).
For `Cc1cccc(NC(S)=NNC(=O)c2ccc3c(c2)OCO3)c1`, the IC50 [16] was > 122 µM (inactive).
With `COc1cc(-c2nc3ccccc3c(=O)n2N)cc(OC)c1OC` the IC50 [17] was > 67.5 µM (inactive) and the EC50 [18] was > 67.5 µM (inactive).
With `COc1ccc(-c2cn3ccc4ccccc4c3n2)cc1` the IC50 [17] was > 67.5 µM (inactive), the EC50 [18] was > 67.5 µM (inactive) and the EC50 [19] was > 67.5 µM (inactive). The EC50 [20] was > 67.5 µM (inactive).
For `COc1cccc(-c2cc(C(=O)Nc3c(C)nn(Cc4ccccc4)c3C)no2)c1`, the IC50 [21] was > 50 µM (not active).
